Results published in patent US6583150B1, “Pharmaceutical composition based on polyaromatic compounds” (Laboratorie L. Lafon, priority 1999, dated 2003).

Assays:
[1] = system: 12 human tumor lines: U-87MG, U-373MG, SW 1088, T24, J82, HCT-15, LoVo, MCF7, T-47D, A549, A-427 and PC-3; test: MTT cytotoxicity test, panel of the 12 human tumor lines; assay type: cell-based; details: Homo sapiens, read-out: average IC50
Protocol: (§1) The influence of the compounds of formulae I and II on neoplastic cells was evaluated using the MTT calorimetric test. The principle of the MTT test is based on the mitochondrial reduction by metabolically active live cells of the yellow-colored product MTT (3-(4,5-dimethylthiazol-2-yl)-2,5-diphenyltetrazolium bromide) to a blue-colored product, formazan. The amount of formazan thus obtained is directly proportional to the amount of live cells present in the culture well(s). This amount of formazan is measured by spectrophotometry.
(§2) The cell lines are maintained in monolayer culture at 37° C. in stoppered culture dishes containing 25 MM HEPES MEM (Minimum Essential Medium) base medium. This medium, which is suitable for growing a range of varied diploid or primary mammalian cells, is then supplemented: […]
(§3) with a an amount of 5% FCS (Fetal Calf Serum) decomplemented at 56° C. for 1 hour, with 0.6 mg/mL of L-glutamine, with 200 IU/mL of penicillin, with […] of streptomycin, with 0.1 mg/mL of gentamicin.
The 12 human cancer cell lines used were obtained from the American Type Culture Collection (ATCC, Rockville, Md., USA). These 12 cell lines are:
U-373MG (code ATCC: HTB-17) and U-87MG (code ATCC: HTB-14) which are two glioblastomas, SW1088 (code ATCC: HTB-12) which is an astrocytoma, A549 (code ATCC: CCL-185) and A-427 (code ATCC: HTB-53) which are two non-small-cell lung cancers, HCT-15 (code ATCC: CCL-225) and LoVo (code ATCC: CCL-229) which are two colorectal cancers, T-47D (code ATCC: HTB-133) and MCF7 (code ATCC: HTB-22) which are two breast cancers, J82 (code ATCC: HTB-1) and T24 (code ATCC: HTB-4) which are two bladder cancers, PC-3 (code ATCC: CRL-1435) which is a prostate cancer.
Experimentally: 100 μl of a cell suspension containing 200 000 to 50 000 (depending on the cell type used) cells/mL of culture medium are inoculated in flat-bottomed 96-well multi-well plates and are incubated at 37° C. under an atmosphere comprising 5% CO2 and 70% humidity. After incubating for 24 hours, the culture medium is replaced with 100 μl of fresh medium containing either the various test compounds at concentrations ranging from 10^−5 to 10^−10 M or the solvent used to dissolve the test products (control condition). After incubating for 72 hours under the above conditions, the culture medium is replaced with 100 μl of a yellowish solution of MTT dissolved at a rate of 1 mg/mL in RPMI 1640. The microplates are reincubated for 3 hours at 37° C. and then centrifuged for 10 minutes at 400×g. The yellowish solution of MTT is removed and the blue formazan crystals formed at the cellular level are dissolved in 100 μl of DMSO. The microplates are then agitated for 5 minutes. The intensity of the resulting blue coloration, and thus of the conversion of the yellow MTT product into blue formazan by the cells that are still alive at the end of the experiment is quantified by spectrophotometry using a DYNATECH IMMUNOASSAY SYSTEM machine at wavelengths of 570 nm and 630 nm corresponding, respectively, to the maximum absorption wavelengths of formazan and to the background noise. Software built into the spectrophotometer calculates the average optical density values and also the standard deviation (Std. Dev.) and standard error of mean (SEM) values.
The inhibitory activity on the cell growth of the compounds of formula I and of formula II on the different tumor cell lines was compared with that of the natural product meridine (CRL 8348). All of the compounds of formula I and of formula II show significant inhibitory activity on the cell proliferation of the 12 human tumor lines: U-87MG, U-373MG, SW 1088, T24, J82, HCT-15, LoVo, MCF7, T-47D, A549, A-427 and PC-3 with an inhibitory concentration 50 (IC50) which is between 10^−6 M and 10^−10M, depending on the compounds and the tumor lines tested. By way of example, the values of the concentrations flanking the IC50 which are obtained on the various cell lines are given in table II: […]

[2] = system: T24; test: MTT cytotoxicity test, T24; assay type: cell-based; details: Homo sapiens, T-24, T24 bladder cancer, 72 hours, read-out: concentrations flanking the IC50
Protocol: as §1, §2, §3
The 12 human cancer cell lines used were obtained from the American Type Culture Collection (ATCC, Rockville, Md., USA). These 12 cell lines are: […]

`O=C1c2ncccc2-c2nc3ccccc3c3ccnc1c23` [CRL 8299, Benzo[b]pyrido[4,3,2-de][1,7]phenanthroline-8-one] was tested. Which IC50 [1] did it give?
Its IC50 is 2.2 nM.

What about the IC50 [2] of the same compound?
Its IC50 is < 0.1 nM.
